Assay results taken from patent US20250368644A1, “DURLOBACTAM CRYSTALLINE FORMS” (Entasis Therapeutics Limited, priority 2022, published 2025).
Counter-ions that a name gives are not always drawn.

Tests used:
[1] = Stability of DUR, its salts and crystalline forms (observations in words); conditions: for Stability of the crystalline form: DUR-Ca polymorphs, solvent systems, Calcium salt
Procedure: (§1) Attempts were undertaken to form DUR-Ca via salt metathesis by slurry reaction of DUR-TBA salt with six calcium salts (CaCl2), CaBr2, Ca(BF4)2. Ca(OAc)2, Calcium D-gluconate and Calcium citrate) to find an alternative method to the ion exchange resin, which is very time consuming and costly to scale up.
A range of crystallization experiments were carried out, including evaporations, ambient temperature slurries, vapor stress at ambient temperature and temperature cycling, in many different solvents, or solvent mixtures, using crystalline DUR-Ca, DUR-TBA, and DUR-TEA salts as seeds.

[2] = test system: β-lactamases commonly found in A. baumannii; conditions: preclinical studies, background statement; cited from earlier work
[3] = Salt slurry experiments with DUR-Ca Form A (solid form after slurry in solvents); assay type: physicochemical; conditions: 3 days
Description: DUR-Ca Form A was slurred in 26 solvents for 3 days. A new distinct form (assigned as Form C) was obtained in most of solvents (Table 19).

[4] = Solubility of the salt in solvents (observations in words); assay type: physicochemical
Description: as §1

CC1=C[C@@H]2CN(C(=O)N2OS(=O)(=O)O)[C@@H]1C(N)=O [DUR, Durlobactam]
Chemical stability (degradation) ([1]; free acid): readily degraded
Inhibition of β-lactamases [2]: inhibit the β-lactamases commonly found in A. baumannii

CC1=C[C@@H]2CN(C(=O)N2OS(=O)(=O)O)[C@@H]1C(N)=O [DUR-Ca Form A, Durlobactam Calcium salt]
Result (solid form after slurry) ([3]; Slurry 1, Methanol): Form C
Result (solid form after slurry) ([3]; Slurry 2, Ethanol): Form C
Result (solid form after slurry) ([3]; Slurry 3, IPA): Form C
Result (solid form after slurry) ([3]; Slurry 4, THF): Amorphous
Result (solid form after slurry) ([3]; Slurry 5, EtOAc): Form C
Result (solid form after slurry) ([3]; Slurry 6, Acetone): Form C
Result (solid form after slurry) ([3]; Slurry 7, Isobutanol): Form C
Result (solid form after slurry) ([3]; Slurry 8, Isopropyl Acetate): Form C
Result (solid form after slurry) ([3]; Slurry 9, Acetonitrile): Form C
Result (solid form after slurry) ([3]; Slurry 10, 2-Butanone): Form C
Result (solid form after slurry) ([3]; Slurry 11, Toluene): Mixture of Form A and C
Result (solid form after slurry) ([3]; Slurry 13, Tert-butyl methyl ether): Form C
Result (solid form after slurry) ([3]; Slurry 14, Propanol): Form C
Result (solid form after slurry) ([3]; Slurry 15, Isopentanol): Form C
Result (solid form after slurry) ([3]; Slurry 16, Butyl acetate): Form C
Result (solid form after slurry) ([3]; Slurry 17, Ethyl Formate): Form C
Result (solid form after slurry) ([3]; Slurry 18, 1,4-dioxane): Amorphous
Result (solid form after slurry) ([3]; Slurry 19, Butanol): Form C
Result (solid form after slurry) ([3]; Slurry 20, Heptane): Form C
Result (solid form after slurry) ([3]; Slurry 21, Pentane): Form C
Result (solid form after slurry) ([3]; Slurry 22, Cyclohexane): Form C
Result (solid form after slurry) ([3]; Slurry 23, Methylisobutyl Ketone): Form C
Result (solid form after slurry) ([3]; Slurry 24, Xylene): Form C
Result (solid form after slurry) ([3]; Slurry 25, Isobutyl acetate): Form C
Result (solid form after slurry) ([3]; Slurry 26, Ethyl ether): Form C
Stability of the crystalline form ([1]; listed as Crystalline form A): unstable in certain solvent systems

CC1=C[C@@H]2CN(C(=O)N2OS(=O)(=O)O)[C@@H]1C(N)=O [DUR-Ca Form C, Durlobactam Calcium salt]
Stability of the crystalline form ([1]; listed as crystalline form C): more stable

CC1=C[C@@H]2CN(C(=O)N2OS(=O)(=O)O)[C@@H]1C(N)=O [DUR-TBA, Durlobactam Tetrabutylammonium salt]
Solubility ([4]; EtOH): soluble
Solubility ([4]; most solvents): soluble in most solvents

CC1=CC2CN(C(=O)N2OS(=O)(=O)O)C1C(N)=O.c1ccncc1 (centres unmarked) [pyridine salt]
Stability of the salt as isolated solid [1]: not stable
